Experimental data taken from patent US20210290597A1, “METHOD OF TREATING A CONDITION ASSOCIATED WITH NEURODEGENERATION USING INHIBITORS OF OAT3” (Neuropore Therapies, Inc., priority 2018, published 2021).
Read-outs that look alike come from different tables or passages of the source.

Experiments:
[1] = target: T1, human transporter MATE2-K (Homo sapiens, UniProt Q86VL8); assay: In vitro ion transport assay 1, MATE2-K; type: cell-based; settings: probe substrate 10 μM [14C]-metformin
T1 construct: expressed in transfected cells; host or cells: MDCK-II
Method: Compound 1 was studied in the concentration range of 0.1-100 μM for its potency against transport mediated by various transporter proteins. [table]

human transporter OAT3 = target: T2, human transporter OAT3 (Homo sapiens, UniProt Q8TCC7); assay: In vitro transport assay 2, OAT3; type: cell-based
T2 construct: expressed in transfected cells; host or cells: MDCK-II
T2 sequence (Q8TCC7 1-542): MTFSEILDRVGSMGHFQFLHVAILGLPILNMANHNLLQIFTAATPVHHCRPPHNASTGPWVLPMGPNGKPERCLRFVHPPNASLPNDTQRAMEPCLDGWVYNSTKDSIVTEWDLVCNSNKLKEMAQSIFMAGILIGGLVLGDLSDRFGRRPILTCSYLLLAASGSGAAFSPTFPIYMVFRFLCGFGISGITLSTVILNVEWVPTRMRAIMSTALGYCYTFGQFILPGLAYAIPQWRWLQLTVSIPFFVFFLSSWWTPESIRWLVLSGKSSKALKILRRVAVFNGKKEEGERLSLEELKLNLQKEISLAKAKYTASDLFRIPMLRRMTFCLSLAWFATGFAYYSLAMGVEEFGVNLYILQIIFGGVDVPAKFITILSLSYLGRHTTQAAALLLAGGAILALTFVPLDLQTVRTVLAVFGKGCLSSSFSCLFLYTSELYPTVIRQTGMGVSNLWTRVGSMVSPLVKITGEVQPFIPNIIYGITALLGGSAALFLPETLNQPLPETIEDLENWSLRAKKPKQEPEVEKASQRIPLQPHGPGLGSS
Method: Compound 1 was studied in the concentration range of 0.1-10 μM for its potency against transport mediated by various transporter proteins.

[2] = test system: Translocator Protein (18 kDa) (TSPO); assay: TSPO immunofluorescence, L41 APP transgenic mice; type: in vivo; settings: 5 mg/kg daily i.p.
Method: Neuroinflammation is associated with increased expression of the 18-kDa translocator protein (TSPO), which is present on the mitochondria of activated microglia, astroglia and macrophages (Crawshaw and Robertson 2017). The effects of Compound 1 on TSPO expression were assessed in both L41 APP transgenic and non-transgenic mice in a 1 month administration study. L41 APP transgenic mice (36 total mice, n=8-11 mice per treatment group) were injected (i.p.) daily with 5 mg/kg of Compound 1 or a vehicle control (5% DMSO+20% Cremphor EL+0.9% normal saline) for […]. Non-transgenic mice (18 total mice, n=8-11 mice per treatment group) were used as a control and were injected daily (i.p.) with 10 mg/kg of Compound 1 (data not shown) or a vehicle control (5% DMSO+20% Cremphor EL+0.9% normal saline) for 1 month. After 30 days, the mice were sacrificed, and immunofluoresence (IF) detection of TSPO were assessed in the harvested brain tissues.
The harvested brain tissues were drop fixed using 4% PFA and sectioned on a vibratome, and representative sections corresponding to the neuropil of cortex were assessed for TSPO with standard immunofluorescence (IF) staining.

monomeric ASYN = assay: Monomeric ASYN in brain homogenates, L61 ASYN transgenic mice (ProteinSimple western); type: in vivo; settings: 1, 5 or 10 mg/kg per day i.p., 1 month
Method: Multiple in vivo administration studies of Compound 1 were carried out in the Line 61 (L61) mThy1-alpha-synuclein transgenic mouse model of Parkinson's disease (PD). The mThy1-alpha-synuclein transgenic mouse model overexpresses wild-type human ASYN under the Thy-1 promoter (commonly referred to as Line 61 transgenic mice; Rockenstein et al., 2002). […]
Alpha-synuclein (ASYN) is a neuronal protein whose dysregulation has been implicated in the pathogenesis of PD. The effects of Compound 1 on alpha-synuclein aggregation were assessed in both L61 ASYN transgenic and non-transgenic mice in a 1 month administration study. […] At the end of one month, the mice were sacrificed, and immunohistochemical (IHC) detection of total alpha-synuclein deposits, insoluble alpha-synuclein deposits (PK+resistant), microtubule-associated protein 1A/1B-light chain 3 (LC3), and monomeric alpha-synuclein levels were assessed in the harvested brain tissues.
Biochemical evaluations were conducted using a ProteinSimple© western biochemical evaluation. Briefly, samples were mixed with pre-calculated volumes of 0.1× Sample Buffer and 5× Fluorescent Master Mix to make a final sample concentration of 0.4 mg/mL in 10 μL solution for signal optimization and evaporation reduction. […]

T1 sequence (Q86VL8 1-566 isoform Q86VL8-3): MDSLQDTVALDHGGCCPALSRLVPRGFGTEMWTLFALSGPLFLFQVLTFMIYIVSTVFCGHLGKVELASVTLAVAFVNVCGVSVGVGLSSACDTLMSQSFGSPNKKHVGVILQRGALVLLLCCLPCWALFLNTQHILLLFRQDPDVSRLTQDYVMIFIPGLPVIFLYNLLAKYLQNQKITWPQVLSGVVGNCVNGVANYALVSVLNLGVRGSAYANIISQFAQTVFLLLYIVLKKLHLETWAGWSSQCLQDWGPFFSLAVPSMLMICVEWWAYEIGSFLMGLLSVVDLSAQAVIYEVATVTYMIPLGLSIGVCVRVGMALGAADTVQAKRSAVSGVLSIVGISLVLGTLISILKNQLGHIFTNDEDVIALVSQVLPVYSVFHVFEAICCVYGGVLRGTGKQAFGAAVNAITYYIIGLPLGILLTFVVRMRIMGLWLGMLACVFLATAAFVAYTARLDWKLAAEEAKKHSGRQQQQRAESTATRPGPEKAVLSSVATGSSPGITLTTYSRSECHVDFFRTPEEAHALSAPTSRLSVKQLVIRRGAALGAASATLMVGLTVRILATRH

IC50 [1]: 75800 nM
IC50 (human transporter OAT3; 100 nM [3H]-estrone-3-sulfate, read-out: IC50, OAT3 (Substrate: E3S)): 891 nM
IC50 (human transporter OAT3; 10 μM [3H]-p-aminohippurate, read-out: IC50, OAT3 (Substrate: PAH)): 252 nM
SMILES: O=S(=O)(c1ccc(-n2cn[nH]c2=S)cc1)c1ccc(Cl)c(C(F)(F)F)c1 [Compound 1, 4-(4-((4-chloro-3-(trifluoromethyl)phenyl)sulfonyl)phenyl)-2,4-dihydro-3H-1,2,4-triazole-3-thione]
cortical TSPO level vs vehicle-treated Line 41 mice [2]: reduces the TSPO level in a statistically significant manner
cortical and hippocampal levels of monomeric ASYN in cytosolic fraction of brain homogenates (monomeric ASYN): reduced
